Test results from patent publication US11337427B2, “Antimicrobial agents and their use in therapy” (priority 2013, dated 2022).

Key:
[1] = system: Saccharomyces cerevisiae wild type BY4743; test: Yeast growth study in microplates (OD 600 nm); details: for concentration required to retard growth of the yeast cells: agent alone, wild-type yeast
Protocol: Growth studies on wild-type (wt) yeast and the Hog1 mutant were performed. […] The OD (600 nm) in each well was read every 20 minutes using an integrated Beckman Coulter Paradigm microplate reader. The growth of the yeast strains in the microplates was monitored for approximately 25 hours.

[2] = system: Yeast cells (Saccharomyces cerevisiae); test: Cellular import of FAM-labelled ATX-101 (laser scanning microscopy); type: cell-based; details: FAM-labelled peptide, 1-2 minutes incubation
Protocol: Yeast cells (Saccharomyces cerevisiae) were grown in LB media. A fluorescently labelled APIM peptide (ATX-101-FAM) was added to the media and incubated for 1-2 minutes before an aliquot of cells was removed and analyzed on a Zeiss LSM 510 Meta laser scanning microscope equipped with a Plan-Apochromate 63×/1.4 oil immersion objective.

[3] = system: gram negative bacteria (Pseudomonas aeruginosa ATCC 15692, Acinetobacter baumanni ATCC 19606, Escherichia coli ATCC 25922, Pseudomonas aeruginosa TO-5A); test: Robotic MIC assay, gram negative bacteria; details: FIG. 4
E. coli NCIMB 12210 = details: E. coli NCIMB 12210, FIG. 7
[4] = system: gram positive bacteria (Enterococcus faecium CCUG 37832, Enterococcus faecium CTC 492, Micrococcus luteus ATCC 9341); test: Robotic MIC assay, gram positive bacteria; details: FIG. 5
[5] = system: Staphylococcus aureus MRSA 1096; test: MIC assay; details: starting concentration 150 μg/ml
[6] = system: Staphylococcus aureus NCTC 6571; test: MIC assay; details: starting concentration 150 μg/ml
E. coli BL21 (ripl) = test: Overexpression of APIM peptides in E. coli (growth, OD); type: cell-based; details: induced with 1 mM IPTG; no cell-penetrating peptide
Description: In order to verify further that the anti-microbial effect of the APIM peptides arises from the APIM sequence, peptides containing only the APIM sequence (i.e. without a cell-penetrating peptide) were over-expressed in E. coli using the expression vector pET28. The APIM peptide was expressed alone or as part of a fusion protein with EYFP. Expression of EYFP alone was used as a control.
The expression vectors containing the respective peptides were transfected into the bacterial strain E. coli BL21 (ripl). Single colonies, 4-6 of each strain, were inoculated in […] LB media (+Km/Clm) in 96 wells plates, and incubated at 37° C. Overnight cultures were diluted 1:100 and grown for 1 h before induction with 1 mM IPTG (initiating peptide expression). OD was measured every hour.

N.N.[Cl][Pt][Cl] [cisplatin]
concentration required to retard growth of the yeast cells [1]: 500 µM | effect on growth of the yeast cells ([1]; cisplatin 125 μM alone): not sufficient to retard growth | effect on growth of the yeast cells ([1]; cisplatin 2000 μM alone): growth is not completely inhibited

Ac-MDRWLVKWKKKRKIRRRRRRRRRRR [ATX-101]
cellular import [2]: imported into yeast cells | concentration from which growth is inhibited [3]: about 1 μM | reduction of the MIC for novobiocin (E. coli NCIMB 12210): 16 fold | concentration from which growth is inhibited [4]: about 1 μM | Factor of inhibition [5]: 0.0625 | Factor of inhibition [6]: 1 | concentration required to retard growth of the yeast cells [1]: ≥ 20 µM

RFSLK (APIM variant) [APIM variant over-expressed in E. coli]
effect of overexpression on bacterial growth (E. coli BL21 (ripl)): particularly effective

RWLTK (APIM variant) [APIM variant over-expressed in E. coli]
effect of overexpression on bacterial growth (E. coli BL21 (ripl)): particularly effective

RWLVK (APIM variant)
effect of overexpression on bacterial growth (E. coli BL21 (ripl)): inhibits bacterial growth

RWLVP (APIM variant) [APIM variant over-expressed in E. coli]
effect of overexpression on bacterial growth (E. coli BL21 (ripl)): particularly effective
